{"source": "paper PMC9607644", "about": "“Glycoconjugation of Quinoline Derivatives Using the C-6 Position in Sugars as a Strategy for Improving the Selectivity and Cytotoxicity of Functionalized Compounds” (Molecules, 2022)", "format_in_all_cases": "cell-based, human", "key": {"[1]": {"system": "HCT-116 cells", "experiment": "MTT viability with GLUT1 inhibitor EDG, HCT-116", "conditions": "100 µM EDG, 72 h", "description": "(§1) To investigate the possible interaction of the tested compounds with glucose receptors and thus to check whether they target the Warburg effect, tests of the influence of the presence of the GLUT inhibitor on the effectiveness of the glycoconjugates were carried out. For this, cells were treated each time with the test compounds in the presence of 100 µM of the GLUT1 inhibitor 4,6-O-ethylidene-α-D-glucose (EDG)."}, "[2]": {"system": "MCF-7 cells", "experiment": "MTT viability with GLUT1 inhibitor EDG, MCF-7", "conditions": "100 µM EDG, 72 h", "description": "as §1"}, "[3]": {"system": "HCT-116 cells", "experiment": "Annexin V-FITC/PI apoptosis flow cytometry, HCT-116", "conditions": "IC50 dose, 24 h", "text": "(§2) Apoptosis is a natural biological process involving programmed cell death and plays an important role in maintaining correct homeostasis between cell proliferation and cell death. This is in contrast to necrosis, which is accompanied by acute inflammation, preceded by cell degradation due to the loss of the integrity of the cell membrane. It is possible to distinguish viable cells from apoptotic and necrotic cell fractions using Annexin V-FITC and Propidium Iodide (PI). Annexin V-FITC labels phosphatidylserine residues that, after the start of apoptosis, are located on the outer surface of the cell membrane, enabling the identification of cells in the early stages of apoptosis. PI binds stoichiometrically to intracellular DNA during late apoptosis and necrosis when the cell membrane has been damaged. This combination allows for the differentiation of early apoptotic (A+/P−), late apoptotic (A+/P+), necrosis (A−/P+), and normal (A−/P−) cells that can be quantified by flow cytometry.\n(§3) The cell cycle and the type of cell death induced by the test compounds were measured by using flow cytometry according to the manufacturer’s protocol. […] Control cells were grown with fresh medium supplemented with 0.5% DMSO. After 24 h of incubation, the cells were collected by trypsinization. Then, samples were centrifuged (3 min, 2000 rpm, RT) and washed with PBS, after which the cells were centrifuged again (3 min, 2000 rpm, RT) and the supernatant was carefully removed. The resulting precipitate contained cells, which were used for flow cytometry experiments.\n(§4) The fraction of dead cells after treatment with the test compounds were detected using the FITC Annexin-V Apoptosis Detection Kit with PI (BioLegend, San Diego, CA, USA). […] 250 μL of the Annexin-V Binding Buffer was then added and the samples were incubated in the dark on ice for 15 min."}, "[4]": {"system": "MCF-7 cells", "experiment": "Annexin V-FITC/PI apoptosis flow cytometry, MCF-7", "conditions": "IC50 dose, 24 h", "text": "as §2, §3, §4"}, "[5]": {"system": "NHDF-Neo cells", "experiment": "Cell cycle analysis by flow cytometry, NHDF-Neo", "conditions": "IC50 dose, 24 h", "text": "After determining the type of cell death caused by the test compounds, the flow cytometry technique was used to study their influence on potential changes in the course of the cell cycle of the HCT-116, MCF-7, and NHDF-Neo lines. The cell cycle is the sequence of growth and division of cells, both normal and cancerous. This process begins from the resting phase (G0) through the active growth phases (G1, S, G2), leading to mitosis (M) in which the cell’s nucleus divides. […] After this time, cells were harvested and treated with a buffer to lysate the cells and isolate the cell nuclei. Propidium iodide was used to assess the amount of DNA in particular phases of the cell cycle. Histograms of DNA content in cells are presented in the Supplementary Materials (Figure S74).\nThe cell cycle and the type of cell death induced by the test compounds were measured by using flow cytometry according to the manufacturer’s protocol. The cells were seeded into 6-well plates at a density of 3 × 10^5 (HCT-116) or 4 × 10^5 (MCF-7, NHDF-Neo) per well (3 mL) and allowed to attach for 24 h under standard conditions with 5% CO2 at 37 °C. The following day, the medium was removed and cells were treated with solutions of test compounds in fresh medium at a dose equal to their IC50 values. Control cells were grown with fresh medium supplemented with 0.5% DMSO. After 24 h of incubation, the cells were collected by trypsinization. Then, samples were centrifuged (3 min, 2000 rpm, RT) and washed with PBS, after which the cells were centrifuged again (3 min, 2000 rpm, RT) and the supernatant was carefully removed. The resulting precipitate contained cells, which were used for flow cytometry experiments.\nFor cell cycle analysis, the cells were suspended in 300 μL of hypotonic buffer (consisting of: sodium citrate dihydrate 1 g/L, propidium iodide (PI) 1 mg/mL, RNAse A 10 mg/mL (EURx, Gdańsk, Poland), Triton X-100 1:9), mixed gently and incubated in the dark at room temperature for 20–30 min. […]"}}, "data": [{"smiles": "Oc1cccc2cccnc12", "note": "[Compound 8HQ, 8-hydroxyquinoline, reference compound]", "values": [{"measurement": "effect of EDG inhibitor in words, HCT-116", "setting": "[1]", "result": "did not have any effect on the cellular uptake"}, {"measurement": "effect of EDG inhibitor in words, MCF-7", "setting": "[2]", "result": "did not have any effect on the cellular uptake"}, {"measurement": "apoptosis induction in words, HCT-116", "setting": "[3]", "result": "results were similar to the control fraction"}, {"measurement": "apoptosis induction in words, MCF-7", "setting": "[4]", "result": "results were similar to the control fraction"}, {"measurement": "cell cycle phase distribution in words, NHDF-Neo", "setting": "[5]", "result": "subG1 phase increasing"}]}]}
